Source: article PMC9164233 (ACS Organic & Inorganic Au, 2022)

Columns and labels:
Experiment in all cases: Cell viability assay
[1] = test system: MCF10A cells; assay type: cell-based; settings: Homo sapiens, MCF-10A, 72 h, read-out: Antiproliferative activity IC50, MCF10A
[2] = test system: HMLER CD24^high/CD44^low cells; assay type: cell-based; settings: Homo sapiens, Epithelial cell, 72 h, read-out: Antiproliferative activity IC50, HMLER CD24^high/CD44^low
[3] = test system: HMLER CD24^low/CD44^high cells; assay type: cell-based, human; settings: 72 h

CC[C@@H](C(=O)[C@@H](C)[C@@H](O)[C@H](C)[C@@H]1O[C@@H]([C@@H](CC)C(=O)O)CC[C@@H]1C)[C@H]1O[C@]2(C=C[C@@H](O)[C@]3(CC[C@@](C)([C@H]4CC[C@](O)(CC)[C@H](C)O4)O3)O2)[C@H](C)C[C@@H]1C [Sal, salinomycin]
IC50 [1]: 1130 ± 140 nM | IC50 [2]: 4360 ± 500 nM | SI (HMLER) = IC50(HMLER CD24^high/CD44^low)/IC50(HMLER CD24^low/CD44^high) ([3]; selectivity for the mesenchymal state): 3.1 | IC50 ([3]; Homo sapiens, read-out: Antiproliferative activity IC50, HMLER CD24^low/CD44^high): 1390 ± 100 nM
